From US20260285809A1, “CRYSTAL OF N-(BENZOYL)-PHENYLALANINE COMPOUND, AND PHARMACEUTICAL COMPOSITION THEREOF, AND PREPARATION METHOD THEREFOR AND USE THEREOF” (Hangzhou Apeloa Medicine Research Institute Co., Ltd., priority 2022, published 2026) come the findings set out here.

In brackets after ≈: the same amount, converted by molar mass.

Holding throughout (type): physicochemical
Series [1] in a line: Solubility in biological media (FaSSIF, FeSSIF), HPLC detection. As to conditions: for solubility at 0.5 h / solubility at 2 h / solubility at 24 h / Solubility: 37° C. On the procedure: Add 20 mg of the sample (the compound shown by Formula (I) in the form of Crystal Form A) into a 10 ml conical tube, and then add 4 ml of water or biological medium (FeSSIF (pH 5.0) or FaSSIF (pH 6.5)), respectively. Shake the solution at 37° C. for 24 h in a constant temperature bath at 1000 rpm, and take samples at 0.5 h, 2 h and 24 h, respectively. Filter the samples through an aquo-system microporous filter membrane and discard the initial filtrate to obtain the test solution.
Perform an HPLC detection for the test solution ([…]), and calculate the sample concentration according to the standard curve method.
Add 20 mg of the sample (the compound shown by Formula (II) in the form of Crystal Form B) into a 10 ml conical tube, and then add 4 ml of water or biological medium (FeSSIF (pH 5.0) or FaSSIF (pH 6.5)), respectively. Shake the solution at 37° C. for 24 h in a constant temperature bath at 1000 rpm, and take samples at 0.5 h, 2 h and 24 h, respectively. Filter the samples through an aquo-system microporous filter membrane and discard the initial filtrate to obtain the test solution.

Series [2] can be described thus: Hygroscopicity by dynamic moisture absorber (DVS). As to conditions: for Weight gain at 80% RH: DVS, 25° C.; for Hygroscopicity (definition criteria for hygroscopic weight gain): from weight gain at 80% RH. On the procedure:
The humidity change for each gradient within 0%~90% is 10%. Airflow: 200 ml/min; temperature: 25° C.; testing point: one testing point taken every 10% increase in humidity.
Take an appropriate amount of the test sample (the compound shown by Formula (I) in the form of Crystal Form A) to test its hygroscopicity with a dynamic moisture absorber.
Take an appropriate amount of the test sample (the compound shown by Formula (II) in the form of Crystal Form B) to test its hygroscopicity with a dynamic moisture absorber.

The nature of series [3]: Solid-state stability under high temperature, high humidity, light exposure and acceleration conditions (HPLC purity, XRPD form). As to conditions: for remaining at 168 h / remaining at 360 h: solid state. The source says:
Sample on the 7th and 15th day to observe the color change of the samples. Analyze the sample purity and crystal form through HPLC and XPRD detection, respectively.
Sample on the 15th day to observe the color change of the sample. Analyze the sample purity and crystal form through HPLC and XPRD detection, respectively.

Where [4] appears, read: Acceleration 40° C./75% RH, 15d.

What is called solubility is the concentration that dissolves in the medium under given conditions. Low readings indicate a poorly soluble substance, high ones a readily soluble substance. As a reminder, the share remaining is the share of the starting amount still present when the sample was taken. A lower share remaining goes with more turnover. Take `O=C(N[C@@H](Cc1ccc(N2C(=O)C3(CC3)c3ccc(F)c(F)c32)cc1)C(=O)O)c1c(F)cccc1Cl` [Crystal Form A, (S)-2-(2-chloro-6-fluorobenzoyl amido)-3-(4-(6′,7′-difluoro-2′-oxospiro [cyclopropane-1,3′-indoline]-1′-yl)phenyl) propionic acid]: the solubility at 0.5 h in series [1] (FaSSIF (pH 6.5), 0.5 h) was found to be 2130 µg/mL (≈ 4140 µM); in series [1] (FeSSIF (pH 5.0), 0.5 h), 460 µg/mL (≈ 893 µM). Also, the solubility at 2 h turned out to be 2230 µg/mL (≈ 4330 µM) in series [1] (FaSSIF (pH 6.5), 2 h) and 480 µg/mL (≈ 932 µM) in series [1] (FeSSIF (pH 5.0), 2 h). The solubility at 24 h in series [1] (FaSSIF (pH 6.5), 24 h) worked out at 2220 µg/mL (≈ 4310 µM); in series [1] (FeSSIF (pH 5.0), 24 h), 490 µg/mL (≈ 952 µM). Also, the “Solubility in FeSSIF and FaSSIF (in words)” value is recorded as “good solubility” in series [1] and “relatively good” in series [1] (listed as Crystal form A). In addition, in series [2], the “Weight gain at 80% RH” value is given as 0.09%. Besides, in series [2], the “Hygroscopicity (definition criteria for hygroscopic weight gain)” value is recorded as “no or almost no hygroscopicity”. Further, the “Change in purity and crystal form (in words)” value in series [3] (15 days at 60° C., 92.5% RH, 4500 lux and 40° C./75% RH) is “no significant changes”. The “Crystal form (XRPD)” value is “Unchanged” in series [3] (Acceleration 40° C./75% RH, 7d); “Unchanged” in series [3] (setting [4]); “Unchanged” in series [3] (High humidity 92.5% RH, 7d); “Unchanged” in series [3] (High humidity 92.5% RH, 15d); “Unchanged” in series [3] (High temperature 60° C., 7d); “Unchanged” in series [3] (High temperature 60° C., 15d). For the same molecule, the “Crystal form (XRPD)” value in series [3] (Light exposure 4500 lux, 7d) is “Unchanged”; in series [3] (Light exposure 4500 lux, 15d) it was “Unchanged”. Further, the fraction remaining at 168 h amounted to 99.4% in series [3] (Acceleration 40° C./75% RH, 7d); 99.3% in series [3] (High humidity 92.5% RH, 7d); 99.4% in series [3] (High temperature 60° C., 7d); 99.2% in series [3] (Light exposure 4500 lux, 7d). The fraction remaining at 360 h amounted to 99.4% in series [3] (setting [4]); 99.3% in series [3] (High humidity 92.5% RH, 15d); 99.4% in series [3] (High temperature 60° C., 15d); 99.2% in series [3] (Light exposure 4500 lux, 15d).

As usually defined, the Solubility is the concentration that dissolves in the medium under given conditions. As to `O=C(N[C@@H](Cc1ccc(N2C(=O)C3(CC3)c3ccc(F)c(F)c32)cc1)C(=O)O)c1c(F)cccc1Cl` [Crystal Form B, (S)-2-(2-chloro-6-fluorobenzoyl amido)-3-(4-(6′,7′-difluoro-2′-oxospiro [cyclopropane-1,3′-indoline]-1′-yl)phenyl) propionic acid], the Solubility in series [1] (FaSSIF (pH 6.5), 0.5 h) is 3187 µg/mL (≈ 6190 µM); in series [1] (FaSSIF (pH 6.5), 2 h), 2961 µg/mL (≈ 5750 µM); in series [1] (FaSSIF (pH 6.5), 24 h), 2791 µg/mL (≈ 5420 µM); in series [1] (FeSSIF (pH 5.0), 0.5 h), 869 µg/mL (≈ 1690 µM); in series [1] (FeSSIF (pH 5.0), 2 h) it was 815 µg/mL (≈ 1580 µM); in series [1] (FeSSIF (pH 5.0), 24 h), 734 µg/mL (≈ 1430 µM). Besides, the “Solubility in FeSSIF and FaSSIF (in words)” value in series [1] is “relatively good”. Also, in series [2], the “Weight gain at 80% RH” value amounted to 0.71%. Besides, the “Hygroscopicity (definition criteria for hygroscopic weight gain)” value in series [2] is recorded as “slight hygroscopicity”.
